Data reported in ChEMBL document CHEMBL3886382, “PDE 10a inhibitors for the treatment of type II diabetes” (2015).

Experiments:
[1] = target: T1, cAMP and cAMP-inhibited cGMP 3',5'-cyclic phosphodiesterase 10A (Rattus norvegicus, UniProt Q9QYJ6); experiment: In Vitro Assay: Rat recombinant PDE10a (rPDE10a) was expressed in Sf9 cells using a recombinant rPDE10a baculovirus construct. Cells were harvested after 48 h of infection and the rPDE10a protein was purified by metal chelate chromatography on Ni-sepharose 6FF. Tested compounds were dissolved and diluted in 100% DMSO to a concentration 100 fold of the final concentration in the assay. Compound dilutions (0.4 uL) were added in 384 well plates to 20 uL of incubation buffer (50 mM Tris pH 7.8, 8.3 mM MgCl2, 1.7 mM EGTA). 10 uL of rPDE10a enzyme in incubation buffer was added and the reaction was started by addition of 10 uL substrate to a final concentration of 60 nM cAMP and 0.008 uCi3H-cAMP. The reaction was incubated for 60 min at rt. After incubation, the reaction was stopped with 20 uL of 17.8 mg/mL PDE SPA beads. After sedimentation of the beads during 30 min the radioactivity was measured in a Perkin Elmer Topcount scintillation counter.
T1 sequence (Q9QYJ6 whole entry): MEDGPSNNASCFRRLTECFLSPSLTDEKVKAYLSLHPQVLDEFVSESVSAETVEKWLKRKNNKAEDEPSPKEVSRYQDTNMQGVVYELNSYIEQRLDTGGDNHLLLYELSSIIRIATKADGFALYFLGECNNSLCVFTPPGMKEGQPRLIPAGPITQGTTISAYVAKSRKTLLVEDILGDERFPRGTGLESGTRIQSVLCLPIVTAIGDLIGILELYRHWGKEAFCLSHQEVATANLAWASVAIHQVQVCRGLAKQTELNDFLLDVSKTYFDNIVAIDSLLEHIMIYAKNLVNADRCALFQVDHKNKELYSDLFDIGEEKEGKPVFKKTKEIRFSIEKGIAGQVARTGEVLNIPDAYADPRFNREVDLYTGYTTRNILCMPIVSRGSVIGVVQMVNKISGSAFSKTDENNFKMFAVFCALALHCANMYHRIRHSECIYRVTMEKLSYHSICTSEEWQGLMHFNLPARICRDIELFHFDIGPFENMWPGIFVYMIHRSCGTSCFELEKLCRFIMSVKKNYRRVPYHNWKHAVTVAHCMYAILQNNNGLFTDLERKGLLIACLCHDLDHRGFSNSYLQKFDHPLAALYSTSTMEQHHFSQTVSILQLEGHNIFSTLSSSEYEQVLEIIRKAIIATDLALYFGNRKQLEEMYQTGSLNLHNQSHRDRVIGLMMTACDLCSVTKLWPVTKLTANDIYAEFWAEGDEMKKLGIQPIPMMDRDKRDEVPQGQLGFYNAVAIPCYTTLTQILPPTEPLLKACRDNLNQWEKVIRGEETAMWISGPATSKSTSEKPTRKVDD

[2] = target: cAMP and cAMP-inhibited cGMP 3',5'-cyclic phosphodiesterase 10A (Homo sapiens, UniProt Q9Y233); experiment: In Vitro Assay: Human recombinant PDE10A2 was expressed in Sf9 cells, using a recombinant baculovirus construct containing the full length sequence containing a 6ÿHis sequence following the start Met to allow metal affinity purification of the recombinant protein. Cells were harvested and the phosphodiesterase protein was purified by metal chelate chromatography on Ni-sepharose 6FF.The affinity of the compounds of Formula (I) for phophodiesterases (PDE) was measured by a scintillation proximity assay (SPA). PDE Yttrium Silicate SPA beads allow PDE activity to be measured by direct binding of the primary phosphate groups of non-cyclic AMP or GMP to the beads via a complex iron chelation mechanism. The amount of bound tritiated product ([3H]-AMP) is measured by liquid scintillation counting.The compounds were dissolved and diluted in 100% DMSO in polystyrene plates to a concentration of 100-fold the final concentration in the assay. Human PDE10A enzyme solution (10 uL) was added.
Chain of cAMP and cAMP-inhibited cGMP 3',5'-cyclic phosphodiesterase 10A (Homo sapiens, UniProt Q9Y233) (Q9Y233 whole entry): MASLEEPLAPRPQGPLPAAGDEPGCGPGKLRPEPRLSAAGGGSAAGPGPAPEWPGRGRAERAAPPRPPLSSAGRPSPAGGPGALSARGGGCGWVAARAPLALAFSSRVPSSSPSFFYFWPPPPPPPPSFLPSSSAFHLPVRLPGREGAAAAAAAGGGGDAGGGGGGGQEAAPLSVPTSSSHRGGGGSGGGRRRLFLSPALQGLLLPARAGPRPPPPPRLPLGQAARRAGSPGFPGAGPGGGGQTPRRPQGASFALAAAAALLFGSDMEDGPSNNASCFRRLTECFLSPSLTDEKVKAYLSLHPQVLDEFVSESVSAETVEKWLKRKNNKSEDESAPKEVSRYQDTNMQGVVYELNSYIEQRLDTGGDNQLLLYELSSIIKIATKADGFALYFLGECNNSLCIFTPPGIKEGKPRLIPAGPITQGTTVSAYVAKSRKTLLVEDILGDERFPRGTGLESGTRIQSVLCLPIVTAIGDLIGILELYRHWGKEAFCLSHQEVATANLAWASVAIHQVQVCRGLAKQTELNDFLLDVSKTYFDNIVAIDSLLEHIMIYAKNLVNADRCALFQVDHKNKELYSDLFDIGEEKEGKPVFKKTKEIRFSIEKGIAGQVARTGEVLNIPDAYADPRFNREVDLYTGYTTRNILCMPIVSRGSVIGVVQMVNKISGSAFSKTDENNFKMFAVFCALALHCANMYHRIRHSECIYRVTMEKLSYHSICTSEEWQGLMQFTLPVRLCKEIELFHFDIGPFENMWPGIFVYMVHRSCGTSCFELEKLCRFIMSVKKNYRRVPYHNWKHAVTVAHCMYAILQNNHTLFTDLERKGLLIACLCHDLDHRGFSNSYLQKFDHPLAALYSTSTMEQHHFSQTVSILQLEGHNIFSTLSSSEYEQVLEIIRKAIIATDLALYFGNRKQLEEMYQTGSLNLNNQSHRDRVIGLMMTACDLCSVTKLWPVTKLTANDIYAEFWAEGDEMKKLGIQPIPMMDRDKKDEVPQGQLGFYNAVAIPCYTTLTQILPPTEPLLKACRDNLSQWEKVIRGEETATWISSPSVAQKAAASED

Row | SMILES | IC50 [1] | IC50 [2]
1 | O=C(O)c1cccc2nc(/C=C/c3nc4c(N5CCOCC5)cc(Cl)nn4c3-c3cccnc3)ccc12 | 2 nM | 
2 | O=C(O)c1cccc2nc(/C=C/c3nc4c(N5CCOCC5)ccnn4c3-c3ccccc3)ccc12 | 1 nM | < 1 nM
3 | N#Cc1ccc(-c2c(/C=C/c3ccc4c(C(=O)O)cccc4n3)nc3c(N4CCOCC4)ccnn23)cc1 | 1 nM | 

More lines, now with the values ahead:

Row | IC50 [1] | IC50 [2] | SMILES
4 | 1 nM |  | O=C(O)c1ccc(-c2c(CSc3ccc4ccccc4n3)nc3c(N4CCOCC4)ccnn23)cc1
5 | 1 nM | 3 nM | C(#Cc1nc2c(N3CCOCC3)ccnn2c1-c1ccc(N2CCNCC2)nc1)c1ccc2ccccc2n1
6 | 5 nM | 7 nM | O=C(O)CN1CCC(c2c(C#Cc3ccc4ccccc4n3)nc3c(N4CCOCC4)ccnn23)CC1
7 |  | 1 nM | COc1cccc(-c2c(/C=C/c3ccc4c(C(=O)O)cccc4n3)nc3c(N4CCOCC4)ccnn23)c1
8 | 4 nM | 6 nM | C(=C\c1nc2c(N3CCOCC3)ccnn2c1-c1ccc(Sc2nnc[nH]2)nc1)/c1ccc2ccccc2n1
